According to patent US20260137807A1, “COMPOSITIONS AND METHODS FOR DELIVERING A MACROMOLECULE TO A CELL” (AstraZeneca AB, priority 2022, published 2026):

Columns and labels:
mCherry-GAL9 cells = assay: mCherry-GAL9 assay in live cells for 4 hours, screening; format: cell-based; conditions: 5 μM (FIG. 6-8)
Method: Cells were subjected to a 10-point concentration dilution (0-15 μM) for 2 hours and then fixed and imaged (FIG. 3 and FIG. 4). Images were analyzed and curves were generated from both mCherry-GAL9 puncta quantitation and cell survival as determined by nuclear morphology (FIG. 5). The GAL9 recruitment response support the functional splice-switching data with SSOs, confirming the mCherry-GAL9 assay as a powerful tool for screening endosomolytic compounds and supporting the hypothesis that AZ2467 (Compound 6) and AZ4800 (Compound 2) promote SSO activity by inducing endosomal rupture. The GAL9 assay was again conducted, this time in live cells for 4 hours with select compounds for screening. Compounds were screened at 5 μM (FIG. 6-8) or 0.3125-10 μM (FIG. 35-38). FIG. 39 and FIG. 47 provide results for select compounds at various doses 0.3125-10 μM.

[1] = system: Luc705 pre-mRNA in Huh7 Luc705 cells; assay: RT-PCR of corrected luciferase mRNA; format: cell-based; conditions: with SSO, Huh7, FIG. 9
Method: (§1) The percentage of corrected luciferase mRNA was quantified using a previously validated RT-PCR protocol. (Saher et al. (2019) Pharmaceutics. 11(12):666) Total RNA was extracted from HeLa Luc705 and Huh7 Luc705 cells using TRI Reagent (Sigma-Aldrich) according to the manufacturer's instructions.
(§2) For RT-PCR reactions using ONE STEP RT-PCR kit (QIAGEN), three nanograms of isolated RNA were utilized. The total reaction volume was 20 μL and the primer sequences used were:
(§3) The program for the RT-PCR was as follows: 55° C., 35 min, then 95° C., 15 min, for the reverse transcription step, directly followed by the PCR (94° C., 30 s, then 55° C., 30 s, then 72° C., 30 s) for 30 cycles and the final extension 72° C., 10 min. The PCR products were analyzed using a 1% agarose gel in 0.5× TAE buffer and visualized by SYBR Gold (Invitrogen, Molecular products) staining.
(§4) Versadoc imaging system with a cooled CCD camera (BioRad, Hercules, CA, USA) was used for the analysis of gels. Band intensities were analyzed with the Quantity One software (BioRad, Hercules, CA, USA). The percentage of correction was calculated using this equation (Band intensity of corrected RNA*100/(Band intensity of corrected RNA+Band intensity of uncorrected RNA).

[2] = system: Luc705 pre-mRNA in HeLa Luc705 cells; assay: RT-PCR of corrected luciferase mRNA; format: cell-based; conditions: with SSO, FIG. 9
Method: as §1, §2, §3, §4

N2A_Luc705 cells = assay: Splice switching activity assay, 24 hr SMC treatment, Examples 4C/4D; format: cell-based; conditions: 2.5 μM compound, 1 μM SSO, FIG. 27
Method: (§5) U2OS_Luc705 and N2A_Luc705 cells were seeded in 96-well plates at 10,000 cells per well in growth media with 1 μM Luc705-SSO. The various SMCs were diluted directly into prepared growth media. After 24 hr to allow adherence and SSO internalization, 10 μl of diluted SMC was added into each well at indicated concentrations. For a positive control, SSOs were complexed with Lipofectamine 2000 for 30 min at RT and cells treated with a final concentration of 200 nM. ON concentrations above 200 nM would require LF2000 to be used in excess of the cells' toxicity threshold. After 24 hr treatment, cells were lysed with 0.1% TritonX-100 (Sigma Aldrich, cat no. X100) in 1× PBS (Gibco, cat no. 10010023).
(§6) For the detection of luciferase activity, 30 μL of cell lysate was transferred to white-walled plates. The luciferase intensity in each well was immediately measured via luminometer following auto-injection of 25 μL Luciferin substrate as per the Promega Firefly Luciferase Assay System. The timing parameters of photon measurements were optimized for this procedure.
as §5, with “The” for “U2OS_Luc705 and N2A_Luc705 cells were seeded in 96-well plates at 10,000 cells per well in growth media with 1 μM Luc705-SSO. The”

U2OS_Luc705 cells = assay: as above; format: cell-based; conditions: 2.5 μM compound, 1 μM SSO, FIG. 27
Method: as §5, §6
as §5, with “The” for “U2OS_Luc705 and N2A_Luc705 cells were seeded in 96-well plates at 10,000 cells per well in growth media with 1 μM Luc705-SSO. The”

[3] = system: anti-CD3/28 stimulated T cells; assay: Co-delivery of Cre recombinase, ex vivo editing of T cells; format: cell-based, mice
Method: The combination of Cre recombinase with Compound 4 was also tested in ex vivo editing of anti-CD3/28 stimulated T cells. […], then treated with 2.5 μM of Compound 4 with varying concentrations of Cre recombinase (50, 100, 200, 500 and 1000 nM), either on a U-plate with no mixing (T1) or mixed in a tube shaker during treatment (T2).

Floxed mice = assay: Co-delivery of Cre recombinase, in vivo editing tdTomato reporter, ICV
Method: Cre recombinase ([…] […] […] […] […] […] […] (SEQ ID NO: 10)) was co-administered with Compound 4 to assess improvement in editing efficiency in an in vivo reporter system, in which edited mice express tdTomato. Floxed mice were administered via intracerebroventricular injection (ICV) with 60 pmol Cre recombinase and varying concentrations (2.5, 5.0, 7.5, 10.0, 12.5, and 15 μM) of Compound 4 as calculated in 40 μL CSF volume. Brain segments were analyzed by immunofluorescent staining 7 days post-treatment.

HEK cells = assay: Co-delivery of ABE8e base editor, GFP reporter; format: cell-based; conditions: 50 nM ABE8e, Compound 4 concentrations above 2.5 μM, FIG. 46B
Method: The ABE8e base editor comprising SpCas9 D10A nickase and a modified TadA adenosine deaminase (Richter et al., Nature Biotechnol. 38:883-891 (2020)) was co-administered with Compound 4 to assess improvement in editing efficiency in an in vitro reporter system in which edited cells express GFP. […] The bar shading and lines showing total cell counts, viable cells, and edited cells are the same as in FIG. 43A.
HEK cells were co-administered with a fixed concentration (50 nM) of ABE8e and varying concentrations of AZ3327 (Compound 4). The results in FIG. 46B show greater than 90% editing efficiency at Compound 4 concentrations of above 2.5 μM.
HEK and N2a cells were co-administered with a fixed concentration (2.5 μM) of Compound 4 and varying concentrations of ABE8e.

[4] = non-activated T cells, FIG. 45A

SMILES: COc1nn(C2CCNCC2)cc1Nc1ncc(Cl)c(-n2ccc3c(C#N)cccc32)n1 [Compound 2]
- GAL9 recruitment, reason for selection for further characterization (mCherry-GAL9 cells): efficacy at shorter-term timepoints
- levels of splice-switching (functional mRNA) [1]: greater levels of splice-switching than transfection with SSO using Lipofectamine 2000
- levels of splice-switching (functional mRNA) [2]: greater levels of splice-switching than transfection with SSO using Lipofectamine 2000

SMILES: COc1nn(C2CCNCC2)cc1Nc1ncc(F)c(-n2ccc3c(C#N)cccc32)n1 [Compound 4]
- activity of the oligo as compared to oligo only (N2A_Luc705 cells): enhanced activity of the oligo as compared to oligo only
- activity of the oligo as compared to oligo only (U2OS_Luc705 cells): enhanced activity of the oligo as compared to oligo only
- editing efficiency ([3]; activated T cells, 2.5 μM compound, FIG. 45C): greater than 90%
- proliferative capacity ([3]; activated T cells, FIG. 45C): without affecting proliferative capacity
- editing [3, 4]: highly edited
- proliferation rate [3, 4]: compromised
- in vivo editing in the brain (tdTomato staining) (Floxed mice; ICV, 60 pmol Cre, 2.5-15 μM compound, 7 days post-treatment): enhanced by Compound 4 in a dose-dependent manner
- staining in the lumbar sections of the spinal cord (Floxed mice; ICV, 60 pmol Cre, FIG. 44B): obvious staining
- location of editing (Floxed mice; dissection segments, FIG. 44C): primarily at the injection site
- editing efficiency (HEK cells): greater than 90%
